Test results from ChEMBL document CHEMBL1667745, “Synthesis and antibacterial evaluation of novel clarithromycin derivatives with C-4″ elongated arylalkyl groups against macrolide-resistant strains” (2011).
In brackets after ≈: the same amount, converted by molar mass.

Assays:
Format in all cases: functional
Streptococcus pneumoniae [1] = test: Antimicrobial activity against erythromycin-resistant Streptococcus pneumoniae AB11 expressing the erm and mef gene by broth microdilution method
Streptococcus pneumoniae [2] = test: Antimicrobial activity against erythromycin-resistant Streptococcus pneumoniae B1 expressing the erm gene by broth microdilution method
Staphylococcus aureus [3] = test: Antimicrobial activity against penicillin-susceptible Staphylococcus aureus P1 by broth microdilution method
Streptococcus pneumoniae [4] = test: Antimicrobial activity against erythromycin-resistant Streptococcus pneumoniae A22072 expressing the mef gene by broth microdilution method
Streptococcus pneumoniae [5] = test: Antimicrobial activity against erythromycin-susceptible Streptococcus pneumoniae ATCC 49619 by broth microdilution method
Streptococcus pyogenes [6] = test: Antimicrobial activity against erythromycin-resistant Streptococcus pyogenes R2 by broth microdilution method
Staphylococcus aureus [7] = test: Antimicrobial activity against erythromycin-susceptible Staphylococcus aureus ATCC 25923 by broth microdilution method
Streptococcus pyogenes [8] = test: Antimicrobial activity against erythromycin-susceptible Streptococcus pyogenes S2 by broth microdilution method

SMILES | MIC (Streptococcus pneumoniae [1]) [µg/mL] | MIC (Streptococcus pneumoniae [2]) [µg/mL] | MIC (Staphylococcus aureus [3]) [µg/mL] | MIC (Streptococcus pneumoniae [4]) [µg/mL] | MIC (Streptococcus pneumoniae [5]) [µg/mL] | MIC (Streptococcus pyogenes [6]) [µg/mL] | MIC (Staphylococcus aureus [7]) [µg/mL] | MIC (Streptococcus pyogenes [8]) [µg/mL]
CCCCNC(=O)CCCCCNC(=O)O[C@H]1[C@H](C)O[C@@H](O[C@H]2[C@H](C)[C@@H](O[C@@H]3O[C@H](C)C[C@H](N(C)C)[C@H]3O)[C@](C)(OC)C[C@@H](C)C(=O)[C@H](C)[C@@H](O)[C@](C)(O)[C@@H](CC)OC(=O)[C@@H]2C)C[C@@]1(C)OC | 128 (≈ 133 µM) | 128 (≈ 133 µM) | 8 (≈ 8.33 µM) | 1 (≈ 1.04 µM) | 0.06 (≈ 0.0625 µM) | 8 (≈ 8.33 µM) | 0.25 (≈ 0.26 µM) | 0.25 (≈ 0.26 µM)
C=CCNC(=O)O[C@H]1[C@H](C)O[C@@H](O[C@H]2[C@H](C)[C@@H](O[C@@H]3O[C@H](C)C[C@H](N(C)C)[C@H]3O)[C@](C)(OC)C[C@@H](C)C(=O)[C@H](C)[C@@H](O)[C@](C)(O)[C@@H](CC)OC(=O)[C@@H]2C)C[C@@]1(C)OC | – | – | 32 (≈ 38.5 µM) | – | 0.25 (≈ 0.301 µM) | – | 0.25 (≈ 0.301 µM) | 0.03 (≈ 0.0361 µM)
CC[C@H]1OC(=O)[C@H](C)[C@@H](O[C@H]2C[C@@](C)(OC)[C@@H](OC(=O)NCCc3ccccc3)[C@H](C)O2)[C@H](C)[C@@H](O[C@@H]2O[C@H](C)C[C@H](N(C)C)[C@H]2O)[C@](C)(OC)C[C@@H](C)C(=O)[C@H](C)[C@@H](O)[C@]1(C)O | 64 (≈ 71.5 µM) | 16 (≈ 17.9 µM) | 0.06 (≈ 0.067 µM) | 1 (≈ 1.12 µM) | 0.03 (≈ 0.0335 µM) | 0.25 (≈ 0.279 µM) | 0.12 (≈ 0.134 µM) | 0.03 (≈ 0.0335 µM)
CC[C@H]1OC(=O)[C@H](C)[C@@H](O[C@H]2C[C@@](C)(OC)[C@@H](O)[C@H](C)O2)[C@H](C)[C@@H](O[C@@H]2O[C@H](C)C[C@H](N(C)C)[C@H]2O)[C@](C)(O)C[C@@H](C)CN(C)[C@H](C)[C@@H](O)[C@]1(C)O [AZITHROMYCIN] | 256 (≈ 342 µM) | 128 (≈ 171 µM) | 0.12 (≈ 0.16 µM) | 4 (≈ 5.34 µM) | 0.03 (≈ 0.0401 µM) | 8 (≈ 10.7 µM) | 0.25 (≈ 0.334 µM) | 0.03 (≈ 0.0401 µM)
CC[C@H]1OC(=O)[C@H](C)[C@@H](O[C@H]2C[C@@](C)(OC)[C@@H](OC(=O)NCCCC(=O)NCCc3ccc(O)cc3)[C@H](C)O2)[C@H](C)[C@@H](O[C@@H]2O[C@H](C)C[C@H](N(C)C)[C@H]2O)[C@](C)(OC)C[C@@H](C)C(=O)[C@H](C)[C@@H](O)[C@]1(C)O | 1 (≈ 1 µM) | 0.25 (≈ 0.251 µM) | 9 (≈ 9.03 µM) | 0.5 (≈ 0.502 µM) | 0.03 (≈ 0.0301 µM) | 8 (≈ 8.03 µM) | 0.5 (≈ 0.502 µM) | 0.5 (≈ 0.502 µM)
CC[C@H]1OC(=O)[C@H](C)[C@@H](O[C@H]2C[C@@](C)(OC)[C@@H](OC(=O)NCCCCCC(=O)NC3CCCCC3)[C@H](C)O2)[C@H](C)[C@@H](O[C@@H]2O[C@H](C)C[C@H](N(C)C)[C@H]2O)[C@](C)(OC)C[C@@H](C)C(=O)[C@H](C)[C@@H](O)[C@]1(C)O | 128 (≈ 130 µM) | 128 (≈ 130 µM) | 1 (≈ 1.01 µM) | 1 (≈ 1.01 µM) | 0.03 (≈ 0.0304 µM) | 32 (≈ 32.4 µM) | 0.25 (≈ 0.253 µM) | 0.12 (≈ 0.122 µM)
CC[C@H]1OC(=O)[C@H](C)[C@@H](O[C@H]2C[C@@](C)(OC)[C@@H](OC(=O)NCCCCCC(=O)NCc3ccc(OC)cc3)[C@H](C)O2)[C@H](C)[C@@H](O[C@@H]2O[C@H](C)C[C@H](N(C)C)[C@H]2O)[C@](C)(OC)C[C@@H](C)C(=O)[C@H](C)[C@@H](O)[C@]1(C)O | 64 (≈ 62.5 µM) | 64 (≈ 62.5 µM) | 1 (≈ 0.976 µM) | 0.5 (≈ 0.488 µM) | 0.03 (≈ 0.0293 µM) | 32 (≈ 31.2 µM) | 0.12 (≈ 0.117 µM) | 0.12 (≈ 0.117 µM)
CC[C@H]1OC(=O)[C@H](C)[C@@H](O[C@H]2C[C@@](C)(OC)[C@@H](OC(=O)NCCc3ccc(O)cc3)[C@H](C)O2)[C@H](C)[C@@H](O[C@@H]2O[C@H](C)C[C@H](N(C)C)[C@H]2O)[C@](C)(OC)C[C@@H](C)C(=O)[C@H](C)[C@@H](O)[C@]1(C)O | 128 (≈ 140 µM) | 128 (≈ 140 µM) | 16 (≈ 17.6 µM) | 4 (≈ 4.39 µM) | 0.12 (≈ 0.132 µM) | 0.25 (≈ 0.274 µM) | 0.25 (≈ 0.274 µM) | 0.03 (≈ 0.0329 µM)
C=CCNC(=O)CCCNC(=O)O[C@H]1[C@H](C)O[C@@H](O[C@H]2[C@H](C)[C@@H](O[C@@H]3O[C@H](C)C[C@H](N(C)C)[C@H]3O)[C@](C)(OC)C[C@@H](C)C(=O)[C@H](C)[C@@H](O)[C@](C)(O)[C@@H](CC)OC(=O)[C@@H]2C)C[C@@]1(C)OC | – | – | 8 (≈ 8.73 µM) | – | 0.03 (≈ 0.0327 µM) | – | 0.25 (≈ 0.273 µM) | 0.03 (≈ 0.0327 µM)
C=CCNC(=O)CCCCCNC(=O)O[C@H]1[C@H](C)O[C@@H](O[C@H]2[C@H](C)[C@@H](O[C@@H]3O[C@H](C)C[C@H](N(C)C)[C@H]3O)[C@](C)(OC)C[C@@H](C)C(=O)[C@H](C)[C@@H](O)[C@](C)(O)[C@@H](CC)OC(=O)[C@@H]2C)C[C@@]1(C)OC | – | – | 16 (≈ 16.9 µM) | – | 0.03 (≈ 0.0318 µM) | – | 0.25 (≈ 0.265 µM) | 0.5 (≈ 0.53 µM)
